Test results as given in PMC6010112, “Resolution of co-eluting isomers of anti-inflammatory drugs conjugated to carbonic anhydrase inhibitors from plasma in liquid chromatography by energy-resolved tandem mass spectrometry” (Journal of Enzyme Inhibition and Medicinal Chemistry, 2018).

Experiment: not given
Set-up: method as in PMID 28238510, PMID 28113128
Details: cited from earlier work

Row | Structure (SMILES) | half-life (reference compound to verify human plasma activity) [h]
1 | CCOC(=O)C(C)c1cccc(C(=O)c2ccccc2)c1 (stereo not shown) [KEE, Ketoprofen ethyl ester, reference compound] | < 2

Experiment: not given
Set-up: method as in PMID 28238510, PMID 28113128
Details: cited from earlier work
Remark: another data set of the same source

Row | Structure (SMILES) | half-life (reference compound to verify rat plasma activity) [h]
2 | CCOC(=O)[C@H](CCc1ccccc1)N[C@@H](C)C(=O)N1CCC[C@H]1C(=O)O [Enalapril, enalapril, reference compound] | < 0.5

Experiment: Stability in rat plasma (enzymatic hydrolysis), LC-MS/MS
Assay type: in vitro ADME, Sprague-Dawley male rats
Details: male, Sprague-Dawley, 1 µM analyte, 37 °C, incubation 0-120 min, read-out: T 1/2 Rat plasma
Method: (§1) PBS was prepared by adding 8.01 g L^−1 of NaCl, 0.2 g L^−1 of KCl, 1.78 g L^−1 of Na2HPO4·2H2O, and 0.27 g L^−1 of KH2PO4. Human plasma was collected from healthy volunteer and the rat plasma was collected from Sprague-Dawley male rats; each plasma batch was kept at −80 °C until use.
(§2) The sample was prepared adding 10 µL of spiked solution to 100 µL of tested matrix (PBS or human plasma or rat plasma) in microcentrifuge tubes. The obtained solutions correspond to 1 µM of analyte.
(§3) Each set of samples was incubated in triplicate at four different times, 0, 30, 60, and 120 min at 37 °C. Therefore, the matrix stability profile of each analyte was represented by a batch of 12 samples (4 incubation times ×3 replicates). After the incubation, the samples were added with 300 µL of ISTD solution and centrifuged (room temperature for 5 min at 800 g). The supernatants were transferred in autosampler vials and dried under a gentle stream of nitrogen.
(§4) The dried samples were dissolved in 1.0 mL of 10 mM of formic acid in mQ water:acetonitrile 80:20 solution[28].
(§5) An investigation on the chemical stability of compounds under study in PBS, human and rat plasma was performed for evaluating their susceptibility to spontaneous or enzymatic hydrolysis.
In order to establish the hydrolytic activity of the employed plasma batches, two reference compounds were tested, following the procedure reported in the section ‘Validation of LC-MS/MS methods’: KEE (half-life <2 h) and enalapril (half-life <0.5 h) to verify the human and rat plasma activity, respectively[32]^,[33].
(§6) The stability profiles were obtained by monitoring the variation of analyte concentration at different incubation times in PBS or human or rat plasma samples. Generally, when the substrate concentration was smaller than the Michaelis–Menten constant (KM), the enzymatic degradation rate is described to a first-order kinetics. Therefore, plotting the natural logarithm of the quantitative data versus the incubation time, a linear function can be used and its slope represents the degradation rate constant (k).
(§7) All degradation plots of references and studied compounds were reported in the Supplemental material (SF11–SF26). The half-life of each tested compound was calculated as follows: (4) […]

Row | half-life at 1 µM [h] | Structure (SMILES)
3 | > 4 | O=C(c1ccccc1)c1ccc2n1CCC2C(=O)NCCOc1ccc2oc(=O)ccc2c1 (stereo not shown) [Compound 7A]
4 | > 4 | O=C(Cc1ccccc1Nc1c(Cl)cccc1Cl)NCCOc1ccc2ccc(=O)oc2c1 [Compound 5B]
5 | > 4 | CC(C(=O)NCCOc1ccc2oc(=O)ccc2c1)c1ccc(-c2ccccc2)c(F)c1 (stereo not shown) [Compound 6A]
6 | > 4 | CC(C)Cc1ccc(C(C)C(=O)NCCOc2ccc3ccc(=O)oc3c2)cc1 (stereo not shown) [Compound 4B]
7 | > 4 | COc1ccc2cc(C(C)C(=O)NCCOc3ccc4ccc(=O)oc4c3)ccc2c1 (stereo not shown) [Compound 8B]
8 | > 4 | CC(C)Cc1ccc(C(C)C(=O)NCCOc2ccc3oc(=O)ccc3c2)cc1 (stereo not shown) [Compound 4A]
9 | > 4 | CC(C(=O)NCCOc1ccc2ccc(=O)oc2c1)c1cccc(C(=O)c2ccccc2)c1 (stereo not shown) [Compound 3B]
10 | > 4 | CC(C(=O)NCCOc1ccc2oc(=O)ccc2c1)c1cccc(C(=O)c2ccccc2)c1 (stereo not shown) [Compound 3A]
11 | > 4 | O=C(Cc1ccccc1Nc1c(Cl)cccc1Cl)NCCOc1ccc2oc(=O)ccc2c1 [Compound 5A]
12 | > 4 | CC(C(=O)NCCOc1ccc2ccc(=O)oc2c1)c1ccc(-c2ccccc2)c(F)c1 (stereo not shown) [Compound 6B]
13 | > 4 | COc1ccc2cc(C(C)C(=O)NCCOc3ccc4oc(=O)ccc4c3)ccc2c1 (stereo not shown) [Compound 8A]
14 | > 4 | O=C(c1ccccc1)c1ccc2n1CCC2C(=O)NCCOc1ccc2ccc(=O)oc2c1 (stereo not shown) [Compound 7B]

The next lines start with the compound.

Row | Structure (SMILES) | half-life at 1 µM [h]
15 | CCOC(=O)[C@H](CCc1ccccc1)N[C@@H](C)C(=O)N1CCC[C@H]1C(=O)O [Enalapril, enalapril, reference compound] | 0.367
16 | CC1=C(CC(=O)NCCOc2ccc3oc(=O)ccc3c2)c2cc(F)ccc2/C1=C\c1ccc([S+](C)[O-])cc1 (stereo not shown) [Compound 2A] | > 4
17 | COc1ccc2c(c1)c(CC(=O)NCCOc1ccc3ccc(=O)oc3c1)c(C)n2C(=O)c1ccc(Cl)cc1 [Compound 1B] | > 4
18 | COc1ccc2c(c1)c(CC(=O)NCCOc1ccc3oc(=O)ccc3c1)c(C)n2C(=O)c1ccc(Cl)cc1 [Compound 1A] | > 4
19 | CC1=C(CC(=O)NCCOc2ccc3ccc(=O)oc3c2)c2cc(F)ccc2/C1=C\c1ccc([S+](C)[O-])cc1 (stereo not shown) [Compound 2B] | > 4

Experiment: Chemical stability in phosphate buffer solution (spontaneous hydrolysis), LC-MS/MS
Assay type: physicochemical
Details: phosphate buffer solution (PBS), 1 µM analyte, 37 °C, incubation 0-120 min, read-out: T 1/2 PBS
Method: as §2, §3, §4, §5, §6, §7

Row | half-life at 1 µM [h] | Structure (SMILES)
20 | > 4 | O=C(c1ccccc1)c1ccc2n1CCC2C(=O)NCCOc1ccc2oc(=O)ccc2c1 (stereo not shown) [Compound 7A]
21 | > 4 | O=C(Cc1ccccc1Nc1c(Cl)cccc1Cl)NCCOc1ccc2ccc(=O)oc2c1 [Compound 5B]
22 | > 4 | CC(C(=O)NCCOc1ccc2oc(=O)ccc2c1)c1ccc(-c2ccccc2)c(F)c1 (stereo not shown) [Compound 6A]
23 | > 4 | CC(C)Cc1ccc(C(C)C(=O)NCCOc2ccc3ccc(=O)oc3c2)cc1 (stereo not shown) [Compound 4B]
24 | > 4 | COc1ccc2cc(C(C)C(=O)NCCOc3ccc4ccc(=O)oc4c3)ccc2c1 (stereo not shown) [Compound 8B]
25 | > 4 | CC(C)Cc1ccc(C(C)C(=O)NCCOc2ccc3oc(=O)ccc3c2)cc1 (stereo not shown) [Compound 4A]
26 | > 4 | CC(C(=O)NCCOc1ccc2ccc(=O)oc2c1)c1cccc(C(=O)c2ccccc2)c1 (stereo not shown) [Compound 3B]
27 | > 4 | CC(C(=O)NCCOc1ccc2oc(=O)ccc2c1)c1cccc(C(=O)c2ccccc2)c1 (stereo not shown) [Compound 3A]
28 | > 4 | O=C(Cc1ccccc1Nc1c(Cl)cccc1Cl)NCCOc1ccc2oc(=O)ccc2c1 [Compound 5A]
29 | > 4 | CC(C(=O)NCCOc1ccc2ccc(=O)oc2c1)c1ccc(-c2ccccc2)c(F)c1 (stereo not shown) [Compound 6B]
30 | > 4 | COc1ccc2cc(C(C)C(=O)NCCOc3ccc4oc(=O)ccc4c3)ccc2c1 (stereo not shown) [Compound 8A]
31 | > 4 | O=C(c1ccccc1)c1ccc2n1CCC2C(=O)NCCOc1ccc2ccc(=O)oc2c1 (stereo not shown) [Compound 7B]

Continued, compound first:

Row | Structure (SMILES) | half-life at 1 µM [h]
32 | CC1=C(CC(=O)NCCOc2ccc3oc(=O)ccc3c2)c2cc(F)ccc2/C1=C\c1ccc([S+](C)[O-])cc1 (stereo not shown) [Compound 2A] | > 4
33 | COc1ccc2c(c1)c(CC(=O)NCCOc1ccc3ccc(=O)oc3c1)c(C)n2C(=O)c1ccc(Cl)cc1 [Compound 1B] | > 4
34 | COc1ccc2c(c1)c(CC(=O)NCCOc1ccc3oc(=O)ccc3c1)c(C)n2C(=O)c1ccc(Cl)cc1 [Compound 1A] | > 4
35 | CC1=C(CC(=O)NCCOc2ccc3ccc(=O)oc3c2)c2cc(F)ccc2/C1=C\c1ccc([S+](C)[O-])cc1 (stereo not shown) [Compound 2B] | > 4

Experiment: Stability in human plasma (enzymatic hydrolysis), LC-MS/MS
Assay type: in vitro ADME
Details: 1 µM analyte, 37 °C, incubation 0-120 min
Method: as §1, §2
as §3, with “Therefore,” for “Each set of samples was incubated in triplicate at four different times, 0, 30, 60, and 120 min at 37 °C. Therefore,”
as §4, §5, §6

Row | T 1/2 Human plasma [h] | Structure (SMILES)
36 | 1.58 | CCOC(=O)C(C)c1cccc(C(=O)c2ccccc2)c1 (stereo not shown) [KEE, Ketoprofen ethyl ester, reference compound]

Same assay, conditions: male, 1 µM analyte, 37 °C, incubation 0-120 min, read-out: T 1/2 Human plasma

Row | half-life at 1 µM [h] | Structure (SMILES)
37 | > 4 | O=C(c1ccccc1)c1ccc2n1CCC2C(=O)NCCOc1ccc2oc(=O)ccc2c1 (stereo not shown) [Compound 7A]
38 | > 4 | O=C(Cc1ccccc1Nc1c(Cl)cccc1Cl)NCCOc1ccc2ccc(=O)oc2c1 [Compound 5B]
39 | > 4 | CC(C(=O)NCCOc1ccc2oc(=O)ccc2c1)c1ccc(-c2ccccc2)c(F)c1 (stereo not shown) [Compound 6A]
40 | > 4 | CC(C)Cc1ccc(C(C)C(=O)NCCOc2ccc3ccc(=O)oc3c2)cc1 (stereo not shown) [Compound 4B]
41 | > 4 | COc1ccc2cc(C(C)C(=O)NCCOc3ccc4ccc(=O)oc4c3)ccc2c1 (stereo not shown) [Compound 8B]
42 | > 4 | CC(C)Cc1ccc(C(C)C(=O)NCCOc2ccc3oc(=O)ccc3c2)cc1 (stereo not shown) [Compound 4A]
43 | > 4 | CC(C(=O)NCCOc1ccc2ccc(=O)oc2c1)c1cccc(C(=O)c2ccccc2)c1 (stereo not shown) [Compound 3B]
44 | > 4 | CC(C(=O)NCCOc1ccc2oc(=O)ccc2c1)c1cccc(C(=O)c2ccccc2)c1 (stereo not shown) [Compound 3A]
45 | > 4 | O=C(Cc1ccccc1Nc1c(Cl)cccc1Cl)NCCOc1ccc2oc(=O)ccc2c1 [Compound 5A]
46 | > 4 | CC(C(=O)NCCOc1ccc2ccc(=O)oc2c1)c1ccc(-c2ccccc2)c(F)c1 (stereo not shown) [Compound 6B]
47 | > 4 | COc1ccc2cc(C(C)C(=O)NCCOc3ccc4oc(=O)ccc4c3)ccc2c1 (stereo not shown) [Compound 8A]
48 | > 4 | O=C(c1ccccc1)c1ccc2n1CCC2C(=O)NCCOc1ccc2ccc(=O)oc2c1 (stereo not shown) [Compound 7B]

Second part, the compound before the results:

Row | Structure (SMILES) | half-life at 1 µM [h]
49 | CC1=C(CC(=O)NCCOc2ccc3oc(=O)ccc3c2)c2cc(F)ccc2/C1=C\c1ccc([S+](C)[O-])cc1 (stereo not shown) [Compound 2A] | > 4
50 | COc1ccc2c(c1)c(CC(=O)NCCOc1ccc3ccc(=O)oc3c1)c(C)n2C(=O)c1ccc(Cl)cc1 [Compound 1B] | > 4
51 | COc1ccc2c(c1)c(CC(=O)NCCOc1ccc3oc(=O)ccc3c1)c(C)n2C(=O)c1ccc(Cl)cc1 [Compound 1A] | > 4
52 | CC1=C(CC(=O)NCCOc2ccc3ccc(=O)oc3c2)c2cc(F)ccc2/C1=C\c1ccc([S+](C)[O-])cc1 (stereo not shown) [Compound 2B] | > 4
